Assay results from patent publication US20240398781A1, “SPIROCYCLIC CYCLIC MODULATORS OF CHOLESTEROL BIOSYNTHESIS AND THEIR USE FOR PROMOTING REMYELINATION” (GENENTECH, INC., priority 2021, published 2024).

Tests used:
[1] = target: human emopamil binding protein and human 7-dehydrocholesterol reductase co-expressing cells (hEBP-DHCR7 membrane) (Homo sapiens (Human), UniProt Q15125); assay: Radioligand filter binding assay on hEBP-DHCR7 membrane; settings: [3H]-(S)-6-(2-Methyl-3-(6-(trifluoromethyl)pyridin-3-yl)propyl)-2-thia-6-azaspiro[3.4]octane 2,2-dioxide radioligand, HEK293 membrane co-expressing hEBP and hDHCR7
human emopamil binding protein and human 7-dehydrocholesterol reductase co-expressing cells (hEBP-DHCR7 membrane), sequence (Q15125 whole entry): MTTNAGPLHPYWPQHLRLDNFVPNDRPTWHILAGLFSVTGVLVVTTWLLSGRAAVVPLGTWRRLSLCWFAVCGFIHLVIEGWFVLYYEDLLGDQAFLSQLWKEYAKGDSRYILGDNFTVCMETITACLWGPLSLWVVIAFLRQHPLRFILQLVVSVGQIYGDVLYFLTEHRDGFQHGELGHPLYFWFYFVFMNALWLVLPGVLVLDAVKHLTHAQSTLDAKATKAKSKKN
Experimental: Membrane Preparation: human emopamil binding protein and human 7-dehydrocholesterol reductase co-expressing cells were generated by transient transfecting host human embryonic kidney (HEK) 293 cells with 2 DNA constructs containing each protein's coding sequence. Cells were suspension cultured at 37° C. with 5% CO2 in […] 293 Expression Medium (Thermofisher). Whole cell membrane was prepared by harvesting the cell pellet, adding cold membrane buffer (50 mM Tris, pH7.5, lx Roche COMPLETE EDTA-free protease inhibitor cocktail) 10 times volume of the cell pellets weight, lysing cell pellet on ice by using Dounce homogenizer, spinning at 200 g 4° C. for 15 min, collecting supernatant and spinning again at 25000 g 4° C. for 50 min, transferring pellet to Dounce homogenizer, re-suspending pellet by homogenizing in membrane buffer on ice to reach ˜25 mg/mL, then keeping whole cell membrane aliquots at −80° C.
Compounds were prepared in a 96-well U bottom plate using an Echo550 machine and 10 mM compound DMSO stock solution, followed by an 8-dose 5-fold serial dilutions protocol with final testing compound concentration ranging from 0.06 to 5000 nM, with DMSO back fill to 100 nL/well and n=2. […] The UniFilter-96 GF/B plates were pre-treated by adding 50 μl/well of 0.3% (v/v) PEI to UniFilter-96 GF/B plates. The plates were sealed and incubated at 4° C. for 3 hrs. Then, the plates were washed with ice-cold assay buffer 3 times. The radioligand binding assay was prepared by adding assay buffer diluted hEBP-DHCR7 membrane at 66.7 μg/ml×150 μl/well into the 96-well compound plate to reach 10 μg membrane per well. Then, the assay buffer diluted [3H]—(S)-6-(2-Methyl-3-(6-(trifluoromethyl)pyridin-3-yl)propyl)-2-thia-6-azaspiro[3.4] octane 2,2-dioxide was added at 25 nM×50 μl/well. Following this, the plate was centrifuged at 1000 rpm for 30 secs. The plate was then sealed and agitated at 600 rpm at 22° C. for 5 min, and then incubated at 22° C. for 3 hrs. The incubation was stopped by transferring the binding solution to the pre-treated UniFilter-96 GF/B plate, vacuum filtrated, and then washed four times with ice-cold assay buffer. Following this, the plates were dried at 37° C. for 45 min. The plates were then sealed at the bottom. 40 μl/well of scintillation cocktail was added to the plates. A MicroBeta2 microplate counter was then used to read the plate and analyze the data. For reference and test compounds, the results are expressed as % Inhibition, using the normalization equation: N=100−100×(U−C2)/(C1−C2), where U is the unknown value, C1 is the average of high controls, and C2 is the average value of low controls. The IC50 was determined by fitting percentage of inhibition as a function of compound concentrations with Hill equation using XLfit. Results are expressed as hEBP-DHCR7 Ki (uM) in Table 4. Ki was calculated as described above. The asterix (*) indicates an isolated isomer or isolated group of isomers, but that the stereochemistry has not been assigned.

[2] = test system: EBP (zymostenol accumulation in EpiSC-derived OPCs); assay: GC/MS-based sterol profiling, zymostenol accumulation in OPCs; type: cell-based, mouse; settings: Mus musculus, 24 h, EpiSC-derived OPCs, 24 hr treatment, 8 doses from 0.15 nM to 333 nM; read-out: Zymostenol GCMS EC50
Experimental: To assess effects of treatments on OPCs, all treatments were assayed in two or more independent platings of epiblast stem cell-derived OPCs ([…]-derived OPCs were obtained using in vitro differentiation protocols and culture conditions described previously (Najm et al, 2011, Nature Methods). OPCs were expanded and frozen down in aliquots. OPCs were thawed into growth conditions for at least one passage before use in further assays. Sterols were monitored using a modified Folch wash protocol (Hubler et al, 2018, Nature). EpiSC-derived OPCs were plated at 100,000 cells per well in PO- and laminin-coated 96-well plates in N2B27 media without growth factors. After 24 hours, cells were rinsed with saline and plates were frozen. Cholesterol-d7 standard was then added to each well before drying under nitrogen stream and derivatization with 55 μl of bis(trimethylsilyl) trifluoroacetamide. After derivatization, 2 μl were analyzed by gas chromatography/mass spectrometry using an Agilent 5973 Network Mass Selective Detector equipped with a 6890 gas chromatograph system and a HP-5MS capillary column (30 m×0.25 mm×0.25 mm). Samples were analyzed in full scan mode using electron impact ionization; ion fragment peaks were integrated to calculate sterol abundance, and quantitation was relative to cholesterol-d7. […] All standards were obtained from Avanti Polar Lipids unless otherwise indicated. Calibration curves were generated by injecting varying concentrations of sterol standards and maintaining a fixed amount of cholesterol-D7. For normalized zymostenol accumulation results, the total amount of zymostenol measured after drug treatment was divided by the total amount of zymostenol accumulated after 24 hr treatment with 100 nM positive control reference.

| Ki [1] [nM] | EC50 [2] [nM] | Compound |
| --- | --- | --- |
| 10 | 1.1 | CC(C)n1nc(-c2ccc(C(F)(F)F)cc2)nc1[C@@H]1CC[C@H](N2CCC3(C2)CS(=O)(=O)C3)C1 (single isomer, unassigned) [53C*] |
| 21 | 61 | O=S1(=O)CC2(CCN([C@@H]3CCC[C@H](c4ccc(C(F)(F)F)nc4)C3)C2)C1 (single isomer, unassigned) [54A*] |
| 347 | > 330 | O=S1(=O)CC2(CCN([C@H]3CCC[C@@H](c4ccc(C(F)(F)F)nc4)C3)C2)C1 (single isomer, unassigned) [54C*] |
| 80 | > 330 | CC(C)n1nc(C(F)(F)F)cc1[C@@H]1CCC[C@@H](N2CCC3(C2)CS(=O)(=O)C3)C1 (single isomer, unassigned) [61A*] |
| 23 | 100 | CC(C)n1nc(C(F)(F)F)cc1[C@H]1CCC[C@@H](N2CCC3(C2)CS(=O)(=O)C3)C1 (single isomer, unassigned) [61B*] |
| 344 | > 330 | CC(C)n1nc(C(F)(F)F)cc1[C@H]1CCC[C@H](N2CCC3(C2)CS(=O)(=O)C3)C1 (single isomer, unassigned) [61D*] |
| 1980 | > 330 | O=S1(=O)CC2(CCN([C@@H]3CCCN(c4ccc(C(F)(F)F)nc4)C3)C2)C1 (single isomer, unassigned) [66A*] |
| 61 | 12 | O=S1(=O)CC2(CCN([C@H]3CCCN(c4ccc(C(F)(F)F)nc4)C3)C2)C1 (single isomer, unassigned) [66B*] |
|  | 190 | O=S1(=O)CC[C@@]2(CCCN([C@H]3CC[C@@H](c4ccc(C(F)(F)F)cn4)CC3)C2)C1 (single isomer, unassigned) [68A*] |
|  | > 330 | O=S1(=O)CC[C@]2(CCCN([C@H]3CC[C@@H](c4ccc(C(F)(F)F)cn4)CC3)C2)C1 (single isomer, unassigned) [68C*] |
|  | 42 | O=S1(=O)CC[C@]2(CCCN([C@H]3CC[C@H](c4ccc(C(F)(F)F)cn4)CC3)C2)C1 (single isomer, unassigned) [68D*] |
| 35 | 23 | O=S1(=O)CC[C@@]2(CCCN([C@H]3CC[C@H](c4cc(C(F)(F)F)nn4C4CC4)CC3)C2)C1 (single isomer, unassigned) [69B*] |
| 50 | 58 | O=S1(=O)CC[C@]2(CCCN([C@H]3CC[C@H](c4cc(C(F)(F)F)nn4C4CC4)CC3)C2)C1 (single isomer, unassigned) [69D*] |
|  | 280 | O=S1(=O)CC[C@@]2(CCCN([C@H]3CC[C@H](c4ccc(C(F)(F)F)nc4)CC3)C2)C1 (single isomer, unassigned) [71B*] |
|  | 62 | O=S1(=O)CC[C@]2(CCCN([C@H]3CC[C@@H](c4ccc(C(F)(F)F)nc4)CC3)C2)C1 (single isomer, unassigned) [71C*] |
|  | > 330 | O=S1(=O)CC[C@]2(CCCN([C@H]3CC[C@H](c4ccc(C(F)(F)F)nc4)CC3)C2)C1 (single isomer, unassigned) [71D*] |
| 71 | > 330 | CC(C)n1nc(C(F)(F)F)cc1[C@@H]1CCC[C@@H](N2CCC3(CC2)CS(=O)(=O)C3)C1 (single isomer, unassigned) [78A*] |
| 46 | 19 | CC(C)[C@@H]1C[C@@H](N2CCC3(C2)CS(=O)(=O)C3)CCN1c1ccc(C(F)(F)F)nc1 (single isomer, unassigned) [82B*] |
| 310 | 60 | CC(C)n1nc(C(F)(F)F)cc1[C@H]1CC[C@H](N2CCC[C@@]3(CCS(=O)(=O)C3)C2)CC1 (single isomer, unassigned) [91B*] |
|  | 8.2 | CC(C)n1nc(C(F)(F)F)cc1[C@H]1CC[C@@H](N2CCC[C@]3(CCS(=O)(=O)C3)C2)CC1 (single isomer, unassigned) [91C*] |
|  | 50 | CC(C)n1nc(C(F)(F)F)cc1[C@H]1CC[C@H](N2CCC[C@]3(CCS(=O)(=O)C3)C2)CC1 (single isomer, unassigned) [91D*] |
| 89 | 280 | CC(C)C1C[C@H](N2CCC3(C2)CS(=O)(=O)C3)CCN1c1ccc(C(F)(F)F)nc1 (stereo in doubt) [82A*, 6-((2R,4R)-2-Isopropyl-1-(6-(trifluoromethyl)pyridin-3-yl)piperidin-4-yl)-2-thia-6-azaspiro[3.4]octane 2,2-dioxide] |
| 36 | > 330 | CC(C)[C@H]1CC(N2CCC3(C2)CS(=O)(=O)C3)CCN1c1ccc(C(F)(F)F)nc1 (stereo in doubt) [82C*, 6-((2R,4S)-2-isopropyl-1-(6-(trifluoromethyl)pyridin-3-yl)piperidin-4-yl)-2-thia-6-azaspiro[3.4]octane 2,2-dioxide] |
| 100 | > 330 | CC(C)[C@@H]1C[C@H](N2CCC3(C2)CS(=O)(=O)C3)CCN1c1ccc(C(F)(F)F)nc1 (stereo in doubt) [82D*, 6-((2S,4R)-2-isopropyl-1-(6-(trifluoromethyl)pyridin-3-yl)piperidin-4-yl)-2-thia-6-azaspiro[3.4]octane 2,2-dioxide] |
| 85 | 36 | O=S1(=O)CC2(CCN([C@H]3CC[C@H](c4ccc(C(F)(F)F)nc4)CC3)CC2)C1 [81A*, 7-((1r,4r)-4-(6-(Trifluoromethyl)pyridin-3-yl)cyclohexyl)-2-thia-7-azaspiro[3.5]nonane 2,2-dioxide] |
| 310 | 100 | O=S1(=O)CCC2(CCN([C@H]3CC[C@@H](c4ccc(C(F)(F)F)cn4)CC3)C2)CC1 [84A*, 2-((1r,4r)-4-(5-(Trifluoromethyl)pyridin-2-yl)cyclohexyl)-8-thia-2-azaspiro[4.5]decane 8,8-dioxide] |
| 9.6 | 14 | O=S1(=O)CC2(CCN([C@H]3CC[C@@H](c4ncc(C(F)(F)F)cc4Cl)CC3)C2)C1 [Compound 48B, 6-((1s,4s)-4-(3-chloro-5-(trifluoromethyl)pyridin-2-yl)cyclohexyl)-2-thia-6-azaspiro[3.4]octane 2,2-dioxide] |
|  | 36 | O=S1(=O)CC2(CCN([C@H]3CC[C@H](c4ccnc(C(F)(F)F)c4Cl)CC3)C2)C1 [Compound 92A, 6-((1r,4r)-4-(3-Chloro-2-(trifluoromethyl)pyridin-4-yl)cyclohexyl)-2-thia-6-azaspiro[3.4]octane 2,2-dioxide] |
|  | 5.2 | O=S1(=O)CC2(CCN([C@H]3CC[C@@H](c4ccnc(C(F)(F)F)c4Cl)CC3)C2)C1 [Compound 92B, 6-((1s,4s)-4-(3-chloro-2-(trifluoromethyl)pyridin-4-yl)cyclohexyl)-2-thia-6-azaspiro[3.4]octane 2,2-dioxide] |
|  | 12 | O=S1(=O)CC2(CCCN([C@H]3CC[C@H](c4ccnc(C(F)(F)F)c4)CC3)C2)C1 [Compound 93, 6-((1r,4r)-4-(2-(Trifluoromethyl)pyridin-4-yl)cyclohexyl)-2-thia-6-azaspiro[3.5]nonane 2,2-dioxide] |
